# In patent US20160024051A1, “SALTS AND SOLID FORMS OF ISOQUINOLINONES AND COMPOSITION COMPRISING AND METHODS OF USING THE SAME” (INFINITY PHARMACEUTICALS, INC., priority 2013, published 2016):
# Experiments:
# [1] = 24 hours
# [2] = pKa of the basic nitrogen atoms; type: physicochemical; conditions: at least two basic nitrogen atoms
# [3] = Free base solubility assessment in 15 solvents (free base Form 1); type: physicochemical
# Description: Approximately 11 mg (0.022 mmol) portions of the free base Form 1 of Compound 1 (i.e., the compound of formula (I)) were weighed into 2 ml screw-topped HPLC vials. One of 15 solvents was added to each vial in a number of aliquots (up to 100 volumes), with shaking and if necessary with heating to 40° C., in an attempt to achieve dissolution.
# [4] = PK properties in non-clinical animal species (all species); type: in vivo, CD-1 mouse, Wistar rat, Cyno monkey, Beagle dog; conditions: non-clinical animal species
# Description: (§1) For example, Compound 1 bis-hydrogen sulfate monohydrate was evaluated in CD-1 mouse, Wistar rat, Cyno monkey, and Beagle dog. Cross species allometric scaling of CL (drug clearance) and Vss (volume at steady state) predicts low CL, high Vss and long T112 for Compound 1 in humans.
# [5] = Cross species allometric scaling of CL and Vss to humans
# Description: as §1
# [6] = biological target: PI3K-δ (Homo sapiens, UniProt O00329); experiment: Kd determination, PI3K-δ; type: binding
# PI3K-δ, sequence (O00329 whole entry): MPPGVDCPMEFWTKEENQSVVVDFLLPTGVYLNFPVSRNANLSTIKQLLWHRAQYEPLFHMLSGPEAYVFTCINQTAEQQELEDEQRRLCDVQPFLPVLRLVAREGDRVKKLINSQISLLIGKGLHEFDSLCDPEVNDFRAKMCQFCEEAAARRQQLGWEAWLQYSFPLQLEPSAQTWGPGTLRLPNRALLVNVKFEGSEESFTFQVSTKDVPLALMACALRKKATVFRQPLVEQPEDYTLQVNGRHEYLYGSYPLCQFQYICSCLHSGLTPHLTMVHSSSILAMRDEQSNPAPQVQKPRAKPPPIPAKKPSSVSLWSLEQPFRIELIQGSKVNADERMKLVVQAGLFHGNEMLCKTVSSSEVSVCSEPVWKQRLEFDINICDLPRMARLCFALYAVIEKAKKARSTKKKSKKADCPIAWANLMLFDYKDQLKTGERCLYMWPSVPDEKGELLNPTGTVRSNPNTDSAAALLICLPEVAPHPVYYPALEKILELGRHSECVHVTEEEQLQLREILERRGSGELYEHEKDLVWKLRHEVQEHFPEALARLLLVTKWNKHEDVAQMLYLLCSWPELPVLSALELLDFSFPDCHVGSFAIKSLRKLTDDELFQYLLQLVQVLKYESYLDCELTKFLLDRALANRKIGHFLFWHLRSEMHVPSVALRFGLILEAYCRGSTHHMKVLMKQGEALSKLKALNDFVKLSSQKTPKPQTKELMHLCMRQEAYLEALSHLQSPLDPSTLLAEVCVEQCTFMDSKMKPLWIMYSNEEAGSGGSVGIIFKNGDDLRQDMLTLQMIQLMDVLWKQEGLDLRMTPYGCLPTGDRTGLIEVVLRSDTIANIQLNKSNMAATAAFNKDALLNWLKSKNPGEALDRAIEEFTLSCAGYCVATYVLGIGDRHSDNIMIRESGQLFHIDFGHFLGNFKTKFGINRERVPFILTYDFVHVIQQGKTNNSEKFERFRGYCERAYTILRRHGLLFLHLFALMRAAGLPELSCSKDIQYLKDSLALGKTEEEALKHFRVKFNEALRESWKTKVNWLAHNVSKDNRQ
# PI3K-δ, sequence (P27986 whole entry partner): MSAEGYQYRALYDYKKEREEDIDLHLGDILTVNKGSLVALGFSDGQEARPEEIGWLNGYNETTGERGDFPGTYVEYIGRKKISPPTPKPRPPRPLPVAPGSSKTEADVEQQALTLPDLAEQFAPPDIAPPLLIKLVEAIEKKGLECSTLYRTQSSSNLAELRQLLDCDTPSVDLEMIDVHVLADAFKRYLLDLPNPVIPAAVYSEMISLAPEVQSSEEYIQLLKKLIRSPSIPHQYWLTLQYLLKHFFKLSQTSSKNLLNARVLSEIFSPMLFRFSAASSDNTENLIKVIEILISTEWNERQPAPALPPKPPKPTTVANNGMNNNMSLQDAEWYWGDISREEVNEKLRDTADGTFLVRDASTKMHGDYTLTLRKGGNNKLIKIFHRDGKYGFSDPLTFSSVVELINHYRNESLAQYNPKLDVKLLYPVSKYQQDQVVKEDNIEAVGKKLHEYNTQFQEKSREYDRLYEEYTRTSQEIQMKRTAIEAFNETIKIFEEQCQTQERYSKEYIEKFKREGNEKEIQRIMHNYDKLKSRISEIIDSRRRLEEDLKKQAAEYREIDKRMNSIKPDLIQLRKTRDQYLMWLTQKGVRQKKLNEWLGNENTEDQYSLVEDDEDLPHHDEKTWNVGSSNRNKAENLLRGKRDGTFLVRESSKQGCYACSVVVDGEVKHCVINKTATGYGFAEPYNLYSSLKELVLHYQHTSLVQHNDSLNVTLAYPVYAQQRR
# [7] = biological target: PI3K-γ (Homo sapiens, UniProt P48736); experiment: Kd determination, PI3K-γ; type: binding
# PI3K-γ, sequence (P48736 whole entry): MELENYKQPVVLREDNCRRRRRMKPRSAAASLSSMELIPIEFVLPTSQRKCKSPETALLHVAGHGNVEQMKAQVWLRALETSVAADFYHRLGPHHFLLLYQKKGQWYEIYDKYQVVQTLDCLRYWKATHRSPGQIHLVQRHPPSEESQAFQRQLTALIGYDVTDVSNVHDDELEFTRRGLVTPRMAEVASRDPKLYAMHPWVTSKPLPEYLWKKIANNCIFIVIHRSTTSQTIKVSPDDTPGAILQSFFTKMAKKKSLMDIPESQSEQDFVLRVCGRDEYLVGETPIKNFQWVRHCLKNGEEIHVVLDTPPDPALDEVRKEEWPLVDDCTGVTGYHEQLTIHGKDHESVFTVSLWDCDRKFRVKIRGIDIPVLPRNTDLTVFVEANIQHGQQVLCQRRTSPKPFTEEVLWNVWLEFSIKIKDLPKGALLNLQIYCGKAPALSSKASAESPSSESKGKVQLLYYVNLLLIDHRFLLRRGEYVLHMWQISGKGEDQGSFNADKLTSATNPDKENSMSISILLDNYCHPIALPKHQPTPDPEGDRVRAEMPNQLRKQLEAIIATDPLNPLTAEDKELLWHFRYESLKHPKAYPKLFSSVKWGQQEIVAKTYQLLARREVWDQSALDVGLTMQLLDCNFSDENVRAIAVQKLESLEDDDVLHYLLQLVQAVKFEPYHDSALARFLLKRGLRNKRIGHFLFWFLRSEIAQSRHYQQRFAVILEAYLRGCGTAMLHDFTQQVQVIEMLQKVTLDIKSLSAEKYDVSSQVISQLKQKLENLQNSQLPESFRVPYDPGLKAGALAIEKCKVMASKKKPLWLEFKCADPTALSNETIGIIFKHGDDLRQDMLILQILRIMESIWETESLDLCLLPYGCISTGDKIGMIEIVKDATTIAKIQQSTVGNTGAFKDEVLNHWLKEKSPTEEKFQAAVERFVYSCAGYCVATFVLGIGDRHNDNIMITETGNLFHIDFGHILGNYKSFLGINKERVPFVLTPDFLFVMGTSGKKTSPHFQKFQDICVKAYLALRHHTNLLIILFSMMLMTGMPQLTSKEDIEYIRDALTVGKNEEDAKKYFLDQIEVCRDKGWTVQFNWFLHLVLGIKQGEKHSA
# [8] = biological target: PI3K-α (Homo sapiens, UniProt P42336); experiment: Kd determination, PI3K-α; type: binding
# PI3K-α, sequence (P42336 whole entry): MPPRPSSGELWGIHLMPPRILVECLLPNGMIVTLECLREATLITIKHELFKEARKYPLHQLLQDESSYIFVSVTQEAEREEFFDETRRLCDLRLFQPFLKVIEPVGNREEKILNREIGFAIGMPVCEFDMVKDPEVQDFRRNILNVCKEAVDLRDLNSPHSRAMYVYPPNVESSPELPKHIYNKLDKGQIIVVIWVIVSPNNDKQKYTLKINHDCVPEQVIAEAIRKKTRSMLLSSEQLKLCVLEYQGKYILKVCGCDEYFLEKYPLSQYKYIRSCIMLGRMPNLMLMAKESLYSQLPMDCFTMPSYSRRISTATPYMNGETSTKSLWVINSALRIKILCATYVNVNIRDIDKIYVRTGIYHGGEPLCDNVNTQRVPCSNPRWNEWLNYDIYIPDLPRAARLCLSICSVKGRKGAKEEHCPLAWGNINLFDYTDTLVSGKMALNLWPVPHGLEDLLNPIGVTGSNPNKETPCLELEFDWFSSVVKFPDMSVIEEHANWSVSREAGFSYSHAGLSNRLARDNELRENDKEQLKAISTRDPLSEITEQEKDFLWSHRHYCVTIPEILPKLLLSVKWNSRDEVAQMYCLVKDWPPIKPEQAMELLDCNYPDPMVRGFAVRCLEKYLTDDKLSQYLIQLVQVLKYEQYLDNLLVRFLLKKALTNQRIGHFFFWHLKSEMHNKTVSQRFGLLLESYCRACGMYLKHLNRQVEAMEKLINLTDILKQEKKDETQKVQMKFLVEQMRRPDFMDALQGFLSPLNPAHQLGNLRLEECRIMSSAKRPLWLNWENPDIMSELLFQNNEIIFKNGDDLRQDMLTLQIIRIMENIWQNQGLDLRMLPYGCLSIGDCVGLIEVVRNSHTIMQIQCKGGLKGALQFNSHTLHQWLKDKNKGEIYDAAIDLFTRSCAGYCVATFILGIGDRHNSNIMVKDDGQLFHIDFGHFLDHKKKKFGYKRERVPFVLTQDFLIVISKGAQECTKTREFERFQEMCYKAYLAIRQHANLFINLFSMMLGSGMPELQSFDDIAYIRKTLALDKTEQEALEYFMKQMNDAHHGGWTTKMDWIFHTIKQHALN
# PI3K-α, sequence (P27986 whole entry partner): as the sequence (P27986 whole entry partner) above
# [9] = biological target: PI3K-β (Homo sapiens, UniProt P42338); experiment: Kd determination, PI3K-β; type: binding
# PI3K-β, sequence (P42338 whole entry): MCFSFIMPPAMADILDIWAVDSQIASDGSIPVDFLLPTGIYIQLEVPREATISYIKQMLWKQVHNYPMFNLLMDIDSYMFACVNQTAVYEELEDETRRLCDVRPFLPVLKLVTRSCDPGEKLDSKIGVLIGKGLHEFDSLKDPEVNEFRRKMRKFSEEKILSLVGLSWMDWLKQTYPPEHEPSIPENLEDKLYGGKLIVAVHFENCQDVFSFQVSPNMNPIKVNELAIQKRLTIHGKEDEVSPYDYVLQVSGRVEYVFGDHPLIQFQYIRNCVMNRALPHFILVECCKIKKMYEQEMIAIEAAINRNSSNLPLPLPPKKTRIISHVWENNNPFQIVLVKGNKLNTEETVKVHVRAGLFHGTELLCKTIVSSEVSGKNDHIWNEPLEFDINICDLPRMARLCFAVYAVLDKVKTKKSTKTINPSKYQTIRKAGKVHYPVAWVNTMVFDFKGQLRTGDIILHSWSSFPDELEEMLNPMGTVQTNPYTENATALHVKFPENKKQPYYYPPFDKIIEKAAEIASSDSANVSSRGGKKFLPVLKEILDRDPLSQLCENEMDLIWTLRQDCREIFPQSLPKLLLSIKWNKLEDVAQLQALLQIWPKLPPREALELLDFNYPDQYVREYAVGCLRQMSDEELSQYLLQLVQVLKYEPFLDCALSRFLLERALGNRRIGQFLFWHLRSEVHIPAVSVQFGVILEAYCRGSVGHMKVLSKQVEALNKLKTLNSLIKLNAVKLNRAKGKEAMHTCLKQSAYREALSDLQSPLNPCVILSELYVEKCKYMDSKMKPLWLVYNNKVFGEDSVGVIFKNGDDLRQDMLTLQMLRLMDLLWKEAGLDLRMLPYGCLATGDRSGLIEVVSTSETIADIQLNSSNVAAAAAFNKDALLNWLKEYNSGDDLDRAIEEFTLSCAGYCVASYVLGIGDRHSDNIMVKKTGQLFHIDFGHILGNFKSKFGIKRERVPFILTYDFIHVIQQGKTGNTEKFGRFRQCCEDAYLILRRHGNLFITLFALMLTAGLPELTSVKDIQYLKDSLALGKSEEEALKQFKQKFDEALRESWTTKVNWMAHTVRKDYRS
# PI3K-β, sequence (P27986 whole entry partner): as the sequence (P27986 whole entry partner) above
# [10] = Storage at 25° C./93% RH for 1 week, re-analysis by XRPD/HPLC; type: physicochemical; conditions: after 1 week, XRPD
# [11] = Gravimetric vapour sorption (GVS); type: physicochemical
# Outline: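 Moisture sorption isotherm at 25° C, 0-90% RH in 10% RH steps, 2 scans giving one full cycle, starting from 40% RH. Each step equilibrated 1-4 h until mass within 5% of predicted asymptote; solid re-checked by XRPD afterwards.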
# [12] = Thermodynamic aqueous solubility; type: physicochemical; conditions: at pH 6.47
# [13] = Drying experiments: heating in an oven at 125° C. for two hours, XRPD; type: physicochemical
# [14] = Storage at 40° C./75% RH (elevated humidity) for 1 week, re-analysis by XRPD/HPLC; conditions: after 1 week, XRPD
# Description: The crystalline solids were filtered, dried at ambient conditions, and stored at 40° C./75% RH for 1 week and analyzed by ^1H NMR/IC.
# Samples from the screen using amorphous free base Compound 1 were analysed by ^1H-NMR and DSC, and re-analysis by XRPD was also carried out after drying at 50° C./vacuum and storage at 40° C./75% RH (the same sample was dried and stored at elevated humidity).
structure (smiles),measurement,setting,value
COc1cc(-c2cccc3cc([C@H](C)Nc4nc(N)ncc4C#N)n(-c4ccccc4)c(=O)c23)ccn1,crystallinity after standing at RT,[1],decreases
"COc1cc(-c2cccc3cc([C@H](C)Nc4nc(N)ncc4C#N)n(-c4ccccc4)c(=O)c23)ccn1 [Compound 1, (S)-2-amino-4-((1-(8-(2-methoxypyridin-4-yl)-1-oxo-2-phenyl-1,2-dihydroisoquinolin-3-yl)ethyl)amino)pyrimidine-5-carbonitrile]",pKa,[2],~3.5
same,volumes of solvent in which Compound 1 dissolved,[3]; 2-MeTHF,50 vol.
same,volumes of solvent in which Compound 1 dissolved,[3]; DMSO,5 vol.
same,volumes of solvent in which Compound 1 did not dissolve,[3]; EtOAC,> 100 vol.
same,volumes of solvent in which Compound 1 did not dissolve,[3]; EtOH,> 100 vol.
same,volumes of solvent in which Compound 1 did not dissolve,[3]; EtOH/H2O,> 100 vol.
same,volumes of solvent in which Compound 1 did not dissolve,[3]; H2O,> 100 vol.
same,volumes of solvent in which Compound 1 dissolved,[3]; MIBK,40 vol.
same,volumes of solvent in which Compound 1 dissolved,"[3]; MeOH, shaking, if necessary heating to 40° C.",75 vol.
same,volumes of solvent in which Compound 1 dissolved,[3]; MeOH/anisole (50/50 v/v),10 vol.
same,volumes of solvent in which Compound 1 did not dissolve,[3]; TBME,> 100 vol.
same,volumes of solvent in which Compound 1 dissolved,[3]; THF,40 vol.
same,volumes of solvent in which Compound 1 did not dissolve,[3]; acetone,> 100 vol.
same,volumes of solvent in which Compound 1 did not dissolve,[3]; acetonitrile,> 100 vol.
same,volumes of solvent in which Compound 1 did not dissolve,[3]; anisole,> 100 vol.
same,volumes of solvent in which Compound 1 dissolved,[3]; chloroform,40 vol.
same,oral bioavailability,[4],Good oral bioavailability
same,CL (drug clearance) predicted in humans,[5]; allometric scaling,low
same,T112 predicted in humans,[5]; allometric scaling,long
same,Vss (volume at steady state) predicted in humans,[5]; allometric scaling,high
same,Forai in humans,[5]; suggested by oral bioavailability in animals,good
same,koff,[6],0.000252 s⁻¹
same,kon,[6],8.23e+06 M⁻¹ s⁻¹
same,Kd,[6]; read-out: KD = koff/kon,0.0306 nM
same,koff,[7],0.000188 s⁻¹
same,kon,[7],1.65e+06 M⁻¹ s⁻¹
same,Kd,[7]; read-out: KD = koff/kon,0.114 nM
same,koff,[8],0.053 s⁻¹
same,kon,[8],5.43e+06 M⁻¹ s⁻¹
same,Kd,[8]; read-out: KD = koff/kon,9.76 nM
same,koff,[9],0.0126 s⁻¹
same,kon,[9],2.03e+06 M⁻¹ s⁻¹
same,Kd,[9]; read-out: KD = koff/kon,6.24 nM
COc1cc(-c2cccc3cc([C@H](C)Nc4nc(N)ncc4C#N)n(-c4ccccc4)c(=O)c23)ccn1.O [Compound 1 Free Base Form 2],Stability at 25° C./93% RH,[10],Very slight changes after 1 week
same,"GVS: immediate moisture uptake, up to","[11]; 40-50% RH, stable on sorption up to 90% RH and desorption down to 10% RH",uptake (40-50% RH up to 5.7% w/w) which remains
same,GVS: moisture on loading,"[11]; loaded at 40% RH, 25° C.",4.7% w/w moisture on loading. Immediate moisture
same,GVS: XRPD after the experiment,[11]; re-analysis by XRPD after GVS,40% RH. Slight changes by XRPD after the experiment.
same,Thermodynamic aqueous solubility,[12],"0.005 mg/mL, at pH 6.47"
same,Drying experiments: changes by XRPD,[13],very slight changes by XRPD
same,Stability at 40° C./75% RH,[14],Very slight changes after 1 week
